In patent US20240122212A1 (SUNTORY HOLDINGS LIMITED, priority 2020, published 2024):

Experiments:
[1] = target: T1, sweet taste receptor (T1R2/T1R3) (Homo sapiens, UniProt Q7RTX0+Q8TE23); assay: Sensory evaluation of sweetness intensity (VAS) in the co-presence of sweet taste receptor inhibitor lactisole (Example 5); assay type: in vivo
T1 construct: endogenous in cells; host or cells: taste cells in the mouths of 3 trained human panelists (in vivo spitting test)
T1 sequence (Q8TE23 20-839): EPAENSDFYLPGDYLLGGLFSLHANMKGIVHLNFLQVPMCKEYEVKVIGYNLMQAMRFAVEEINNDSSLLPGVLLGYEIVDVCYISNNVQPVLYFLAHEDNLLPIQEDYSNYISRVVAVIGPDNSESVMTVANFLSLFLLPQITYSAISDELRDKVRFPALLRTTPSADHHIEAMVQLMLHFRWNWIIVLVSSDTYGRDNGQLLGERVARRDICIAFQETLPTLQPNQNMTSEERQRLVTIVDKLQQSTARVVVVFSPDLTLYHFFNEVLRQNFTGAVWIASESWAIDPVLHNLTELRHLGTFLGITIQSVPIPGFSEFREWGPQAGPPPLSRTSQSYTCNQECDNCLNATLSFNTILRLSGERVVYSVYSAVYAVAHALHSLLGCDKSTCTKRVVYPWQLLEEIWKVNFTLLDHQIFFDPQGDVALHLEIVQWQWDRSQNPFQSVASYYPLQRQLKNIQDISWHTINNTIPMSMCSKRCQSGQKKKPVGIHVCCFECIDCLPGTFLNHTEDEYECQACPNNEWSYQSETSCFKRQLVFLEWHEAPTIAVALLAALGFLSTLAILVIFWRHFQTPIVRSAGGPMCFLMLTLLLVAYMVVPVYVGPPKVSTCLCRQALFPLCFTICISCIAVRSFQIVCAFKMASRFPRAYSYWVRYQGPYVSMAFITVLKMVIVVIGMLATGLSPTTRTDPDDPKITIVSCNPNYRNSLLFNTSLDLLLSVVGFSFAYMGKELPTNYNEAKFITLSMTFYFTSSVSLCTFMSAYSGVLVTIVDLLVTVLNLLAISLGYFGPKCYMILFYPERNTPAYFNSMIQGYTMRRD
T1 sequence (Q7RTX0 21-852): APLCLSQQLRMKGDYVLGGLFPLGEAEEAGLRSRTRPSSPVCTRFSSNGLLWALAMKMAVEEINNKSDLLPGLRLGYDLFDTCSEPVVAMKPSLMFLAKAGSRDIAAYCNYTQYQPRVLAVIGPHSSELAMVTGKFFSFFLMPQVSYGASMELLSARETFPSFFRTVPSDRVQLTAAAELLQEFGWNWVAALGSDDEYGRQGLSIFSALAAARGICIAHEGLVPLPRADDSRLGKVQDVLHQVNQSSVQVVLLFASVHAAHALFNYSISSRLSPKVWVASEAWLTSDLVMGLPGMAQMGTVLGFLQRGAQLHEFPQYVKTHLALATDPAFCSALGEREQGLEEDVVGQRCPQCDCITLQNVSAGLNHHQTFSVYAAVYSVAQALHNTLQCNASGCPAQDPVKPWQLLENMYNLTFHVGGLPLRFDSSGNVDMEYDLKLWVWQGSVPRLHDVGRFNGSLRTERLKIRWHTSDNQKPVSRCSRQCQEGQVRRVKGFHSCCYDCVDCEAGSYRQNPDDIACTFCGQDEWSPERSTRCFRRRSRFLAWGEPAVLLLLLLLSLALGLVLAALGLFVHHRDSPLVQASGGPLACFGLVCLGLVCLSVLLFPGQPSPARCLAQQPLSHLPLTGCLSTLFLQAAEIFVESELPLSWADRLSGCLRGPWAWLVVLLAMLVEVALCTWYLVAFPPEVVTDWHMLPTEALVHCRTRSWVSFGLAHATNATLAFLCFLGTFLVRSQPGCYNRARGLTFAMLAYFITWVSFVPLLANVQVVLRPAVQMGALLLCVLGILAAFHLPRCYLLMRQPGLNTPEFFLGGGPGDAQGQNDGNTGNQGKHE
Excerpt: Whether or not a certain sweet substance can trigger a sweetness response even if a sweetness response through the sweet taste receptor T1R2/T1R3 is inhibited may be determined by, for instance, measuring, by sensory evaluation or cell assay, the sweetness intensity of a solution (control solution), in which only the above sweet substance has been dissolved, and the sweetness intensity (remaining sweetness intensity) of a solution (test solution), in which a sweet taste receptor T1R2/T1R3 inhibitor (e.g., lactisole, gymnemic acid) is added for inhibiting a sweetness response through the sweet taste receptor T1R2/T1R3 to the control solution; and by comparing the sweetness intensity of the control solution and the sweetness intensity of the test solution.
The evaluation was carried out by those (3 persons) who received sensory trainings as panelists. […] Additionally, solutions having the same composition as sample solutions 1, 2, 3, and 4 except that lactisole was not added were used as control solutions 1, 2, 3, and 4. The sensory evaluation was carried out by spitting test. The sweetness intensity was rated by the VAS scale and calculated with the intensity of a solution to which lactisole was not added being 100% and the sweetness intensity of a solution to which lactisole was added as a relative value (%). The sweetness inhibitory effect by lactisole was verified by this.

[2] = Basic taste quality sensory evaluation by trained panelists, spitting test, against 6% sucrose control (Example 1); assay type: in vivo, human
Description: In each evaluation item, the rating on a scale of −3 point to 3 point was performed, with the case where there is no difference from the control solution being 0. Quicker in sweetness onset, higher sweetness intensity, shorter lingering sweet aftertaste, lower bitterness intensity, and shorter lingering bitter aftertaste compared to the control were rated near 3 points. Slower in sweetness onset, lower sweetness intensity, longer lingering sweet aftertaste, higher bitterness intensity, and longer lingering bitter aftertaste compared to the control were rated near −3 points. That is, the closer to 0 point, the closer to the control. The evaluation was carried out by those (4 persons) who received sensory trainings as panelists by spitting test. The amount of a sweet substance contained in each sample solution was adjusted to be equal to the control solution on the calculation. […] The energy (kcal/100 ml) was calculated from the amount of the sweetener added.

[3] = scale −3 to 3, 0 = no difference from 6% sucrose control, D-allulose 8.57 w/v %, D-arabinose 10 w/v % in pure water, 4 panelists

remaining sweetness intensity when 100 ppm of lactisole was added, compared with sucrose ([1]; 100 ppm lactisole): equal to or more than that of sucrose
Sweetness intensity residual ratio (%) with addition of 100 ppm lactisole ([1]; lactisole-free solution = 100%, sucrose 8 w/v %, sucralose 149 ppm, D- or L-arabinose 13.3 w/v %, VAS, average of n=3): 42.47%
SMILES: O=C[C@@H](O)[C@H](O)[C@H](O)CO [D-Arabinose]
taste quality compared with aqueous solutions containing D-allulose ([2]; aqueous solutions, Example 1): lower bitterness intensity and shorter lingering bitter aftertaste with the taste quality closer to sucrose
Bitterness intensity [2, 3]: 0 point
Lingering bitter aftertaste [2, 3]: −0.125 point
Lingering sweet aftertaste [2, 3]: 0 point
Quickness in sweetness onset [2, 3]: 0.250 point
Sweetness intensity [2, 3]: 0 point
